In patent publication US20240398740A1, “THERAPEUTIC COMPOSITION, METHODS, AND USES FOR THE CONTROL OF SEIZURES” (priority 2022, published 2024):
“Also recorded” adds a separate entry of the source. Read-outs that look alike come from different tables or passages of the source.

Assays:
epileptiform activity = test: primate neocortical seizure model; type: in vivo; settings: Furosemide at 10 mg/kg IV, bumetanide at 2 mg/kg IV
Text: The primate neocortical seizure model was used here for testing the effects of NKCC antagonists on epileptiform activity. This model and the techniques used to analyze the data was originally developed by Haglund and Hochman for the purpose of studying intrinsic optical signals in the human and primate brain, and how these signals could be used to map spread of seizure activity in the neocortex (Haglund et al. 1993, Haglund and Hochman, 2007). […] The afterdischarge protocol developed for human intraoperative studies as shown in the second figure below was also used in primate studies. As well, the physical properties of the optical signals from the brain generated by epileptiform activity (not shown here) (Haglund and Hochman, 2005, Haglund and Hochman 2007).

ADs and hand-twitching = test: stimulation-evoked afterdischarges (ADs) and hand-twitching in primate model; settings: in vivo
Method: Stimulation-evoked […] evoked by a 4 sec train of 60 Hz biphasic pulses at 4-20 mA using a bipolar stimulating electrode (5 mm interelectrode distance) powered by a constant current source (Ojemann Cortical Stimulator, Integra Life Sciences Corporation, NJ, U.S.A.) placed on the sensory cortex, or by passing current between two of the three surface electrodes. The AD threshold was determined by stimulating at the lowest level that reliably triggered AD activity three times in a row and thresholds remained constant throughout recordings. AD activity was reliably elicited on the sensory cortex during the same experiments in which a bicuculline focus was created on the motor cortex. […] The brain is electrically stimulated for 4 seconds at varying current magnitudes until the “after discharge threshold” is determined: the magnitude of stimulation current that is just sufficient to elicit ADs. The stimulation artifacts are shown in the top lefthand trace, denoted by stars (*). The ADs are shown by orange bars. One can see that, in this case, 7 mA was not sufficient for eliciting ADs, but 8 mA reliably generated ADs. […] In this way, changes in the effect of a treatment on this type of electrical stimulation-evoked epileptiform activity can be quantified by measuring changes in the AD-threshold. From Haglund and Hochman, 2007.

bicuculline spiking = test: acute bicuculline seizure focus model in nonhuman primates (surface EEG); type: in vivo, Macaca nemestrina; settings: for block of bicuculline spiking by comparator drugs: IV administration (FIG. 13); for effect on bicuculline spiking after oral dose: 10 mg/kg
[1] = diuresis (urine production) in anesthetized, catheterized macaque monkeys
4-AP bursting = 4-AP bursting in primate neocortical seizure model; type: in vivo; settings: Keppra 2×40 mg/kg
[2] = system: spontaneous interictal spiking; settings: 20 mg IV furosemide; cited from earlier work
afterdischarge activity = settings: cortical stimulation, human patient; cited from earlier work
[3] = system: maximal pentylenetetrazol (PTZ) seizures; settings: pharmacology review provided to the FDA; cited from earlier work
[4] = system: maximal electroshock (MES) seizures; settings: pharmacology review provided to the FDA; cited from earlier work
[5] = in vivo
[6] = repeated dosing in healthy adult subjects: BUN, creatinine, serum chloride, urine specific gravity as signs of diuresis; type: in vivo, humans; settings: healthy adults, eight capsules of 16 mg every 24 hours, day 1 to day 8
Method: Pharmacokinetic (PK) blood samples were collected and analyzed pre-dosing to establish baseline levels. Analysis was also done on day1, day 3, day 4, day 5, day 6, day 7, and day 8 following dosing. The samples were analysed for BUN (blood urea nitrogen), creatinine, serum chloride, and urine specific gravity. Diuresis is indicated by an out of proportion increase in serum BUN compared to creatinine (BUN increase out of proportion to creatinine), a decrease in urine specific gravity, and an increase in serum chloride. […] The grey horizontal lines in FIGS. 28-29 are indicative of an upper and a lower range for accepted normal values. The control-subject (placebo) are indicated with white-and-black dashed lines and grey dots.

[7] = first-pass metabolism and intramuscular absorption of Bumetanide Dibenzylamide; type: in vivo
Text: Refinement opportunities may include extended or controlled release oral capsule or tablet or use of a transdermal formulation. Intramuscular data shown below supports the development of a potential transdermal therapy.

fear-potentiated startle = test: rat fear-potentiated startle (FPS) model of conditioned anxiety; type: in vivo, Long-Evans rats; settings: 35 mg/kg IV
[8] = PO gavage, CMC-water suspension, mol-Eq to 10 mg/kg bumetanide, bicuculline-generated spikes, pretreatment vs maximum change
[9] = PO, 10 mg/kg bumetanide or mol-Eq
[10] = PO, mol-Eq to 10 mg/kg bumetanide
[11] = PO, mol-Eq to 10 mg/kg bumetanide, interspike intervals

Structure (SMILES): CCCCNc1cc(C(=O)O)cc(S(N)(=O)=O)c1Oc1ccccc1 [Bumetanide, 3-(Aminosulfonyl)-5-(butylamino)-4-phenoxybenzoic acid, reference compound]
- anticonvulsant effect in primate seizure model (epileptiform activity): block seizures
- block of ADs and hand-twitching (ADs and hand-twitching): block ADs and hand-twitching
- block of bicuculline spiking by comparator drugs (bicuculline spiking): block bicuculline spiking
- block of bicuculline spiking by comparator drugs (bicuculline spiking; listed as bumetanide): suppress bicuculline spiking
- time postinjection of traces showing profound, nearly complete blockade of epileptiform activity (bicuculline spiking; IV, 2 mg/kg bumetanide or mol-Eq): 81 min
- effect on bicuculline spiking after intravenous dose (bicuculline spiking; IV, 2 mg/kg bumetanide or mol-Eq, in PEG-200): near-complete blockade of the bicuculline spiking
- time postinjection of recovery to baseline pretreatment spiking (bicuculline spiking; IV, 2 mg/kg bumetanide or mol-Eq, NPT 2042 experiment ended before recovery): ~120 min
- Average % change in spike size (bicuculline spiking; [8]): 23.7%
- effect on bicuculline spiking after oral dose (bicuculline spiking; [9]): reduced spike height and frequency of bicuculline spiking; also recorded: transiently mediate a reduction in size and frequency of spiking
- Time to 50% recovery for spike sizes (bicuculline spiking; [10]): 35 min
- Time to 50% recovery of ISI (bicuculline spiking; [10]): 163 min
- Average % change in ISI (bicuculline spiking; [11]): 68.7%
- diuretic response [1, 9]: potent diuretic effect
- block of 4-AP bursting (4-AP bursting): block 4-AP bursting

Structure (SMILES): O=C1NC(c2ccccc2)(c2ccccc2)C(=O)N1COP(=O)(O)O [Fosphenatoin]
- block of ADs and hand-twitching (ADs and hand-twitching): block ADs and hand-twitching
- block of bicuculline spiking by comparator drugs (bicuculline spiking): does not
- block of 4-AP bursting (4-AP bursting): block 4-AP bursting

Structure (SMILES): NS(=O)(=O)c1cc(C(=O)O)c(NCc2ccco2)cc1Cl [Furosemide, furosemide]
- anticonvulsant effect in primate seizure model (epileptiform activity): block seizures
- effect on spontaneous interictal spiking [2]: Blockade of Spontaneous Interictal Spiking
- diuretic potency relative to bumetanide ([1]; in vivo): about 1/10
- afterdischarge activity after treatment (afterdischarge activity): abruptly blocked
- afterdischarge threshold (afterdischarge activity): increased the afterdischarge threshold

Structure (SMILES): CC[C@@H](C(N)=O)N1CCCC1=O [Keppra, Levetiracetam]
- anticonvulsant effect in primate seizure model (epileptiform activity): clear anticonvulsant effect
- block of ADs and hand-twitching (ADs and hand-twitching): does not
- block of bicuculline spiking by comparator drugs (bicuculline spiking): block bicuculline spiking; also recorded: suppress bicuculline spiking
- anticonvulsant activity in PTZ test [3]: no anticonvulsant activity
- anticonvulsant activity in MES test [4]: no anticonvulsant activity
- block of 4-AP bursting (4-AP bursting): does NOT block 4-AP bursting

Structure (SMILES): CCCCNc1cc(C(=O)N2CCOCC2)cc(S(N)(=O)=O)c1Oc1ccccc1 [NPT 2024, Bumetanide Morpholino Amide]
- Average % change in spike size (bicuculline spiking; [8]): 44%
- Time to 50% recovery for spike sizes (bicuculline spiking; [10]): 110 min
- Time to 50% recovery of ISI (bicuculline spiking; [10]): 180 min
- Average % change in ISI (bicuculline spiking; [11]): 37.5%
- interspike intervals compared with bumetanide parent (bicuculline spiking; n=4, FIG. 8): dramatic increase in interspike intervals
- spikes per minute compared with bumetanide parent (bicuculline spiking; n=4, FIG. 9): dramatic decrease in spikes per minute
- average spike height compared with bumetanide parent (bicuculline spiking; n=4, FIG. 10): dramatic decrease in the average spike height
- average rate of urine production after treatment [5]: lower average rate of urine production compared to bumetanide
- percentage change in urine production over time [5]: lower percentage change in urine production over time compared to bumetanide
- rate of urine production over time [5]: lower rate of urine production over time compared to bumetanide

Structure (SMILES): CCCCNc1cc(C(=O)N(Cc2ccccc2)Cc2ccccc2)cc(S(N)(=O)=O)c1Oc1ccccc1 [NPT 2042, N, N-dibenzyl 3-aminosulfonyl-5-butylamino-4-phenoxybenzamide]
- Average % change in ISI (bicuculline spiking; in vivo): 26%
- Average % change in spike size (bicuculline spiking; in vivo): 35.2%
- Time to 50% recovery for spike sizes (bicuculline spiking; in vivo): 160 min
- Time to 50% recovery of ISI (bicuculline spiking; in vivo): 126 min
- time postinjection of recovery to baseline pretreatment spiking (bicuculline spiking; in vivo): > 155 min
- effect on bicuculline spiking after intravenous dose (bicuculline spiking; in vivo, iv, 2 mg/kg): near-complete blockade of the bicuculline spiking
- time postinjection of traces showing profound, nearly complete blockade of epileptiform activity (bicuculline spiking; in vivo, iv, 2 mg/kg): 72 min
- effect on bicuculline spiking after oral dose (bicuculline spiking; in vivo, po): reduced spike height and frequency of bicuculline spiking; also recorded: transiently mediate a reduction in size and frequency of spiking
- indication of diuresis (BUN, creatinine, serum chloride, urine specific gravity) [6]: no indication of diuresis
- first-pass metabolism by the liver ([7]; in vivo): susceptible to high first-pass metabolism by the liver
- absorption after intramuscular administration ([7]; intramuscular): can be absorbed through the microvessels of the muscle into the circulation
- anxiolytic effect in the FPS model (fear-potentiated startle): anxiolytic effect in the FPS model similar in magnitude to that elicited by equivalent (mg/kg) doses of bumetanide
- average rate of urine production after treatment [5]: lower average rate of urine production compared to bumetanide
- percentage change in urine production over time [5]: lower percentage change in urine production over time compared to bumetanide
- rate of urine production over time [5]: lower rate of urine production over time compared to bumetanide

Structure (SMILES): CCCCNc1cc(C(=O)N(CC)CC)cc(S(N)(=O)=O)c1Oc1ccccc1 [bumetanide diethylamide]
- Average % change in spike size (bicuculline spiking; [8]): 40%
- Time to 50% recovery for spike sizes (bicuculline spiking; [10]): 59 min
- Time to 50% recovery of ISI (bicuculline spiking; [10]): 59 min
- Average % change in ISI (bicuculline spiking; in vivo): 65%
- percentage change in urine production over time ([1]; FIG. 21, compared to bumetanide): lower percentage change in urine production over time compared to bumetanide
- rate of urine production over time ([1]; FIG. 22, compared to bumetanide): lower rate of urine production over time compared to bumetanide
- average rate of urine production after treatment ([1]; FIG. 23, compared to bumetanide): lower average rate of urine production compared to bumetanide

Structure (SMILES): CCCC(C)C1(CC)C(=O)NC(=S)NC1=O (stereo not shown) [pentothal, sodium thiopental]
- block of 4-AP bursting (4-AP bursting): block 4-AP bursting
